According to US11649222B2, “Compounds” (UNIVERSITETET I OSLO, priority 2016, dated 2023):
Values joined by “and” are separate entries in the source; they are usually repeats but may differ in a detail not shown here. Identical values can stand only once.

Experiments:
C. freundii (NDM) = assay: Microbroth dilution MIC of meropenem ± 25 mg/L inhibitor; type: cell-based; details: Citrobacter freundii, read-out: MIC meropenem alone
Procedure: (§1) • Plate bacterial strain(s) on appropriate media: • Gram-negative bacteria with ESBLs or carbapenemases: green agar plates with 100 mg/L ampicillin • Gram-negative bacteria without β-lactamases: green agar plates • Gram-positive bacteria (Staphylococci and Enterococci): blood agar plates • Incubate o.n. at 37° C. Day 2: Prepare the Bacterial Inoculum: • Prepare a 0.5 McFarland suspension of bacteria in 0.85% NaCl. (Should be used within 15 min of preparation). • Dilute the 0.5 McFarland suspension 1:100 into MH broth. Check the inoculum by diluting the prepared bacterial suspension 1:100 (10 μl bacterial suspension+990 μl 0.85% NaCl). Plate 10 μl of the dilution on MH agar plates (×2). Incubate o.n. at 37° C., count the colonies and calculate the final CFU/ml inoculum in the plate by multiplying the average number of colonies with 10000 and divide by 2. The final inoculum should be between 3-7×10^5 CFU/ml. • Add 50 μl of the prepared bacterial suspension to each well in the microtiter plate except negative growth control. Preparation of Compounds/Antibiotics • Calculate the desired concentration-range and volume of the compounds/antibiotics in the assay. […] Dilute the stock solution in MH broth. Make subsequent 2-fold dilutions in MH broth of the desired concentrations if a concentration range is to be tested (remember the extra dilution factor in the assay plate). Always include extra volume for pipetting. Take into consideration stock solutions that are made in buffers that have an effect on bacterial growth (e.g. DMSO).

C. freundii (NDM-1) = assay: as above; type: cell-based; details: Citrobacter freundii, read-out: MIC meropenem alone
Procedure: as §1

E. cloacae (VIM) = assay: as above; type: cell-based; details: Enterobacter cloacae, read-out: MIC meropenem alone
Procedure: as §1

E. coli (VIM-1) = assay: as above; type: cell-based; details: Escherichia coli, read-out: MIC meropenem alone
Procedure: as §1

K. pneumoniae (NDM-1) = assay: as above; type: cell-based
Procedure: as §1

K. pneumoniae (NDM-7) = assay: as above; type: cell-based; details: Klebsiella pneumoniae, read-out: MIC meropenem alone
Procedure: as §1

K. pneumoniae (VIM) = assay: as above; type: cell-based; details: Klebsiella pneumoniae, read-out: MIC meropenem alone
Procedure: as §1

[1] = system: M. morganii (OXA48+ NDM-1); assay: as above; type: cell-based; details: Morganella morganii, read-out: MIC meropenem alone
Procedure: as §1

P. mirabilis (NDM-1) = assay: as above; type: cell-based; details: Proteus mirabilis, read-out: MIC meropenem alone
Procedure: as §1

P. stuartii (NDM) = assay: as above; type: cell-based; details: Providencia stuartii, read-out: MIC meropenem alone
Procedure: as §1

P. stuartii (NDM-1) = assay: as above; type: cell-based; details: Providencia stuartii, read-out: MIC meropenem alone
Procedure: as §1

[2] = system: Klebsiella pneumoniae strain 50752501 harbouring NDM-1; assay: In vivo peritonitis infection study in neutropenic mice; parameters: Score at sampling: scale not given here
Procedure: The purpose of this study was to investigate the synergy between a typical example of the present invention and a state of art carbapenem in a clinically relevant multiresistant Gram-negative bacterial strain harboring a metallo-β-lactamase in the treatment of live mice infected with the bacterial strain.
The mice were rendered neutropenic by injecting 0.5 ml cyclophosphamide solution intraperitoneally 4 days (approximately 200 mg/kg) and 1 day (approximately 100 mg/kg) prior to inoculation.
Fresh overnight colonies from a 5% Horse Blood Agar plate were suspended and diluted in sterile saline to approximately and 10^7 CFU/ml. Mice were inoculated intraperitoneally with 0.5 ml of the suspension. Approximately ½ hr prior to inoculation, mice were treated orally with 45 μl neurophen (20 mg ibuprofen/ml corresponding to approximately 30 mg/kg) as a pain relief.
Mice were treated subcutaneously in the neck region with.
Colony counts were determined from blood and peritoneal fluid at 1 and 5 hrs post inoculation. […] The mice were sacrificed immediately after blood sampling and a total of 2 ml sterile saline was injected i.p. and the abdomen gently massaged before it was opened and fluid sampled with a pipette. Each sample was then 10 fold serial diluted in saline and 20-μl spots, ranging from undiluted to a 10^6 dilution, were applied on agar plates in duplicates. […] All agar plates were incubated 18-22 hrs at 35° C. in ambient air.

[3] = vehicle + meropenem 33 mg/kg, sampling T = 5, individual mice

`C[C@@H](O)[C@H]1C(=O)N2C(C(=O)O)=C(S[C@@H]3CN[C@H](C(=O)N(C)C)C3)[C@H](C)[C@H]12` [meropenem, reference compound] showed an MIC (C. freundii (NDM)) of 16 µg/mL, an MIC (C. freundii (NDM-1)) of 4 µg/mL and an MIC (E. cloacae (VIM)) of 8 µg/mL. The MIC (E. coli (VIM-1)) was 0.5 µg/mL, the MIC meropenem alone (K. pneumoniae (NDM-1); K. pneumoniae NDM-1 (several strains)) was 32 µg/mL and the MIC (K. pneumoniae (NDM-1); Klebsiella pneumoniae, read-out: MIC meropenem alone, K. pneumoniae NDM-1 (several strains)) was 64 µg/mL. It also gave an MIC (K. pneumoniae (NDM-7)) of 64 µg/mL, an MIC (K. pneumoniae (VIM)) of 4 µg/mL and an MIC [1] of 8 µg/mL. The MIC (P. mirabilis (NDM-1)) was 32 µg/mL, the MIC (P. stuartii (NDM)) was 64 µg/mL and the MIC (P. stuartii (NDM-1)) was 8 µg/mL. For the same molecule, the “lower CFU levels compared to vehicle treatment, blood” value ([2]; meropenem alone) was 2.5 log10, the “lower CFU levels compared to vehicle treatment, peritoneal fluid” value ([2]; meropenem alone) was 2.2 log10 and the “Pf log CFU/ml mean” value ([2]; peritoneal fluid, vehicle + meropenem 33 mg/kg, sampling T = 5) was 5.22 log CFU/ml. For the same molecule, the “Pf log CFU/ml” value ([2]; peritoneal fluid, vehicle + meropenem 33 mg/kg, sampling T = 5, individual mice) was 5.72 log CFU/ml and 4.60 log CFU/ml and 5.30 log CFU/ml and 5.24 log CFU/ml, the “Blood log CFU/ml mean” value ([2]; vehicle + meropenem 33 mg/kg, sampling T = 5) was 2.98 log CFU/ml and the “Blood log CFU/ml” value [2, 3] was 3.51 log CFU/ml (2×) and 2.80 log CFU/ml and 2.10 log CFU/ml. The Score at sampling [2, 3] was 2.
